Results from patent publication US20080194574A1, “Pyrazine Derivatives As Effective Compounds Against Infectious Diseases” (AXXIMA PHARMACEUTICALS AG, priority 2003, published 2008).
pIC50: −log10 of the molar value.

Molecular target: T1, viral kinase pUL-97 (Human cytomegalovirus, UniProt P16788)
T1 construct: The pUL-97 gene was cloned into a baculovirus vector; GST (glutathione S-transferase) (N); made in house; host or cells: Sf9 insect cells, baculovirus
Test: UL97 kinase assay on Immobilon plate
Format: biochemical
Conditions: inhibition of UL 97 kinase activity; class by IC50 / % inhibition at 10 μM or 100 μM; read-out: Activity Class [A, B, C]
Summary of the method: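 Compound was titrated into a radiometric reaction of Sf9-expressed GST-UL97 kinase, incubated 1 h at 30 °C in Tris-HCl pH 7.5/MnCl2/DTT buffer before EDTA stop. MBP substrate and ATP (3 μM in the added assay buffer) were supplied with γ-[33P]ATP. Labelled product bound to Immobilon filter was washed and counted by scintillation.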

T1 sequence (P16788 whole entry): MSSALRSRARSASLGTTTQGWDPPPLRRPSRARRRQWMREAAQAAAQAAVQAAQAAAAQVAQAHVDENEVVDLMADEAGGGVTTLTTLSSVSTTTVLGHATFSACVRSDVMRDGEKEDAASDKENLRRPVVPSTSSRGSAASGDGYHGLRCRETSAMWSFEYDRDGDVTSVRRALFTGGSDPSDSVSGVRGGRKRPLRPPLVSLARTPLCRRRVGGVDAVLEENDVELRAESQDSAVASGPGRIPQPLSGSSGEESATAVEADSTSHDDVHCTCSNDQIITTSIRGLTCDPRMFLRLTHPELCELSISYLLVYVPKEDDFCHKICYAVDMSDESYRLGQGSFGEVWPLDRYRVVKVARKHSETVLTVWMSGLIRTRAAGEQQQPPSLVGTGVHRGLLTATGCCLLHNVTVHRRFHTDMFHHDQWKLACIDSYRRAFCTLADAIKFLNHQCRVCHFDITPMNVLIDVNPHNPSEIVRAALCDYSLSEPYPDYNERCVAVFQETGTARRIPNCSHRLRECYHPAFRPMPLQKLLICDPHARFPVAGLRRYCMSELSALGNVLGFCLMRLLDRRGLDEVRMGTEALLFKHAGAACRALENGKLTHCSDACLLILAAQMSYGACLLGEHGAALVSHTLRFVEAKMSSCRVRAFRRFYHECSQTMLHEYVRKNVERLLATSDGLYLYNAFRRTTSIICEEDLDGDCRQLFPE

`COc1cccc(N2CCN(c3cncc(-c4csc5ccccc45)n3)CC2)c1` [compound 286, 6′-Benzo[b]thiophen-3-yl-4-(3-methoxy-phenyl)-3,4,5,6-tetrahydro-2H-[1,2′]bipyrazinyl] and `COc1cccc(N2CCN(c3cncc(-c4ccc5ccccc5c4)n3)CC2)c1` [compound 322, 4-(3-Methoxy-phenyl)-6′-naphthalen-2-yl-3,4,5,6-tetrahydro-2H-[1,2′]bipyrazinyl] fall in the same range of pIC50: 5.00 to 6.00 for the first, 5.00 to 6.00 for the second.

First: Cc1cccc(N2CCN(c3cncc(-c4ccc(C(N)=O)cc4)n3)CC2C)c1 (stereo not shown) [compound 299, 4-(3-Methyl-4-m-tolyl-3,4,5,6-tetrahydro-2H-[1,2′]bipyrazinyl-6′-yl)-benzamide]
Second: Cc1cc(C)cc(-c2cncc(N3CCN(c4cccc(C)c4)C(C)C3)n2)c1 (stereo not shown) [compound 339, 6′-(3,5-Dimethyl-phenyl)-3-methyl-4-m-tolyl-3,4,5,6-tetrahydro-2H-[1,2′]bipyrazinyl]
The pIC50 of the first is higher: 5.00 to 6.00 for the first, 4.00 to 5.00 for the second. The first is the more potent here.

Compared with `OCc1ccc(-c2cncc(N3CCN(c4ccc(F)cc4)CC3)n2)cc1` [compound 269, {4-[4-(4-Fluoro-phenyl)-3,4,5,6-tetrahydro-2H-[1,2′]bipyrazinyl-6′-yl]-phenyl}-methanol], `Fc1ccc(-c2cncc(N3CCN(c4ccc(C(F)(F)F)cc4)CC3)n2)cc1` [compound 309, 6′-(4-Fluoro-phenyl)-4-(4-trifluoromethyl-phenyl)-3,4,5,6-tetrahydro-2H-[1,2′]bipyrazinyl] is lower in pIC50: 5.00 to 6.00 for the first, 4.00 to 5.00 for the second. The first is the more potent here.

First: Cc1cccc(N2CCN(c3cncc(-c4cc5ccccc5s4)n3)CC2C)c1 (stereo not shown) [compound 300, 6′-Benzo[b]thiophen-2-yl-3-methyl-4-m-tolyl-3,4,5,6-tetrahydro-2H-[1,2′]bipyrazinyl]
Second: COc1ccc(N2CCN(c3cncc(-c4cc5ccccc5s4)n3)CC2)cc1 [compound 292, 6′-Benzo[b]thiophen-2-yl-4-(4-methoxy-phenyl)-3,4,5,6-tetrahydro-2H-[1,2′]bipyrazinyl]
The pIC50 of the first is lower: 4.00 to 5.00 for the first, 5.00 to 6.00 for the second. The second is the more potent here.

Compared with `Fc1ccc(N2CCN(c3cncc(-c4ccc(-c5ccccc5)c(F)c4)n3)CC2)cc1` [compound 268, 6′-(2-Fluoro-biphenyl-4-yl)-4-(4-fluoro-phenyl)-3,4,5,6-tetrahydro-2H-[1,2′]bipyrazinyl], `COc1cccc(N2CCN(c3cncc(-c4ccc(F)cc4)n3)CC2)c1` [compound 367, 6′-(4-Fluoro-phenyl)-4-(3-methoxy-phenyl)-3,4,5,6-tetrahydro-2H-[1,2′]bipyrazinyl] is higher in pIC50: 4.00 to 5.00 for the first, 5.00 to 6.00 for the second. The second is the more potent here.

First: COc1ccccc1N1CCN(c2cncc(-c3ccc(C)cc3)n2)CC1 [compound 241, 4-(2-Methoxy-phenyl)-6′-p-tolyl-3,4,5,6-tetrahydro-2H-[1,2′]bipyrazinyl]
Second: COc1cccc(N2CCN(c3cncc(-c4ccc(C)cc4)n3)CC2)c1 [compound 284, 4-(3-Methoxy-phenyl)-6′-p-tolyl-3,4,5,6-tetrahydro-2H-[1,2′]bipyrazinyl]
The pIC50 of the first is lower: 4.00 to 5.00 for the first, 5.00 to 6.00 for the second.

`COc1ccc(-c2cncc(N3CCN(c4ccc(C)cc4C)CC3)n2)cc1OC` [compound 288] and `CCOc1ccc(-c2cncc(N3CCN(c4ccc(C)cc4)CC3)n2)cc1` [compound 266, 6′-(4-Ethoxy-phenyl)-4-p-tolyl-3,4,5,6-tetrahydro-2H-[1,2′]bipyrazinyl] fall in the same range of pIC50: 4.00 to 5.00 for the first, 4.00 to 5.00 for the second.

`CSc1ccc(-c2cncc(N3CCN(c4ccc(Cl)c(Cl)c4)CC3)n2)cc1` [compound 372, 4-(3,4-Dichloro-phenyl)-6′-(4-methylsulfanyl-phenyl)-3,4,5,6-tetrahydro-2H-[1,2′]bipyrazinyl] and `CN(C)c1ccc(-c2cncc(N3CCN(c4ccc(Cl)c(Cl)c4)CC3)n2)cc1` [compound 357, {4-[4-(3,4-Dichloro-phenyl)-3,4,5,6-tetrahydro-2H-[1,2′]bipyrazinyl-6′-yl]-phenyl}-dimethyl-amine] fall in the same range of pIC50: 4.00 to 5.00 for the first, 4.00 to 5.00 for the second.

`CC(=O)c1ccc(-c2cncc(N3CCC(c4ccccc4)CC3)n2)cc1` [compound 362] and `CC(=O)c1ccc(N2CCN(c3cncc(-c4ccoc4)n3)CC2)cc1` [compound 205, 1-[4-(6′-Furan-3-yl-2,3,5,6-tetrahydro-[1,2′]bipyrazinyl-4-yl)-phenyl]-ethanone] fall in the same range of pIC50: 5.00 to 6.00 for the first, 5.00 to 6.00 for the second.

First: CSc1ccccc1-c1cncc(N2CCN(c3ccccn3)CC2)n1 [compound 342, 6′-(2-Methylsulfanyl-phenyl)-4-pyridin-2-yl-3,4,5,6-tetrahydro-2H-[1,2′]bipyrazinyl]
Second: COc1cccc(-c2cncc(N3CCN(c4ccccn4)CC3)n2)c1 [compound 304, 6′-(3-Methoxy-phenyl)-4-pyridin-2-yl-3,4,5,6-tetrahydro-2H-[1,2′]bipyrazinyl]
The pIC50 of the first is lower: 4.00 to 5.00 for the first, 5.00 to 6.00 for the second. The second is the more potent here.

First: CSc1ccc(-c2cncc(N3CCN(c4cnccn4)CC3)n2)cc1 [compound 314, 6-(4-Methylsulfanyl-phenyl)-2′,3′,5′,6′-tetrahydro-[2,1′;4′,2″]terpyrazine]
Second: Brc1ccc(-c2cncc(N3CCN(c4cnccn4)CC3)n2)cc1 [compound 313, 6-(4-Bromo-phenyl)-2′,3′,5′,6′-tetrahydro-[2,1′;4′,2″]terpyrazine]
The pIC50 of the first is lower: 5.00 to 6.00 for the first, over 6.00 for the second. The second is the more potent here.

Same assay, conditions: inhibition of UL 97 kinase activity; class by IC50 / % inhibition at 10 or 100 μM; read-out: Activity Class [A, B, C]

`COc1ccccc1N1CCN(c2cncc(-c3ccc(C(C)(C)C)cc3)n2)CC1` [compound 88, 6′-(4-tert-Butyl-phenyl)-4-(2-methoxy-phenyl)-3,4,5,6-tetrahydro-2H-[1,2′]bipyrazinyl] and `COc1ccc2cc(-c3cncc(N4CCN(c5ccccc5OC)CC4)n3)ccc2c1` [compound 187, 6′-(6-Methoxy-naphthalen-2-yl)-4-(2-methoxy-phenyl)-3,4,5,6-tetrahydro-2H-[1,2′]bipyrazinyl] fall in the same range of pIC50: 4.00 to 5.00 for the first, 4.00 to 5.00 for the second.

`COc1ccc(-c2cncc(NCCc3cccnc3)n2)cc1` [compound 18] and `Oc1ccc(-c2cncc(NCc3cccs3)n2)cc1` [compound 30, 4-{6-[(Thiophen-2-ylmethyl)-amino]-pyrazin-2-yl}-phenol] cannot be ordered by pIC50: over 6.00 for the first, over 6.00 for the second.

`COc1ccc(N2CCN(c3cncc(-c4cc(C)cc(C)c4)n3)CC2)cc1OC` [compound 170, 4-(3,4-Dimethoxy-phenyl)-6′-(3,5-dimethyl-phenyl)-3,4,5,6-tetrahydro-2H-[1,2′]bipyrazinyl] and `COc1ccc(C(C)C)cc1-c1cncc(N2CCN(c3ccncc3)CC2)n1` [compound 55, 6′-(5-Isopropyl-2-methoxy-phenyl)-4-pyridin-4-yl-3,4,5,6-tetrahydro-2H-[1,2′]bipyrazinyl] fall in the same range of pIC50: 4.00 to 5.00 for the first, 4.00 to 5.00 for the second.

`CSc1ccc(-c2cnc(N)c(N3CCN(c4ccncc4)CC3)n2)cc1` [compound 75, 6′-(4-Methylsulfanyl-phenyl)-4-pyridin-4-yl-3,4,5,6-tetrahydro-2H-[1,2′]bipyrazinyl-3′-ylamine] and `NC(=O)c1ccc(-c2cncc(N3CCN(c4ccncc4)CC3)n2)cc1` [Comp. 21, 4-(4-Pyridin-4-yl-3,4,5,6-tetrahydro-2H-[1,2′]bipyrazinyl-6′-yl)-benzamide] cannot be ordered by pIC50: over 6.00 for the first, over 6.00 for the second.

Compared with `c1ccc(-c2cncc(N3CCN(c4ccccc4)CC3)n2)cc1` [compound 109, 4,6′-Diphenyl-3,4,5,6-tetrahydro-2H-[1,2′]bipyrazinyl], `c1ccc(Oc2ccc(-c3cncc(N4CCN(c5ccccc5)CC4)n3)cc2)cc1` [compound 189, 6′-(4-Phenoxy-phenyl)-4-phenyl-3,4,5,6-tetrahydro-2H-[1,2′]bipyrazinyl] is lower in pIC50: 5.00 to 6.00 for the first, 4.00 to 5.00 for the second. The first is the more potent here.

First: Cc1ccc(-c2cncc(N3CCN(c4ccc(F)cc4F)CC3)n2)cc1 [compound 142, 4-(2,4-Difluoro-phenyl)-6′-p-tolyl-3,4,5,6-tetrahydro-2H-[1,2′]bipyrazinyl]
Second: Cc1ccc(N2CCN(c3cncc(-c4ccc(C(F)(F)F)cc4)n3)CC2)cc1 [compound 178, 4-p-Tolyl-6′-(4-trifluoromethyl-phenyl)-3,4,5,6-tetrahydro-2H-[1,2′]bipyrazinyl]
The pIC50 of the first is lower: 4.00 to 5.00 for the first, 5.00 to 6.00 for the second. The second is the more potent here.

Compared with `OCc1ccc(-c2cncc(N3CCN(c4ccccc4F)CC3)n2)cc1` [compound 125, {4-[4-(2-Fluoro-phenyl)-3,4,5,6-tetrahydro-2H-[1,2′]bipyrazinyl-6′-yl]-phenyl}-methanol], `NC(=O)c1ccc(-c2cncc(N3CCN(c4ccccn4)CC3)n2)cc1` [Comp. 15, 4-(4-Pyridin-2-yl-3,4,5,6-tetrahydro-2H-[1,2′]bipyrazinyl-6′-yl)-benzamide] is higher in pIC50: 5.00 to 6.00 for the first, over 6.00 for the second. The second is the more potent here.

First: Fc1ccc(-c2cncc(NCc3ccco3)n2)c(F)c1 [compound 48, [6-(2,4-Difluoro-phenyl)-pyrazin-2-yl]-furan-2-ylmethyl-amine]
Second: FC(F)(F)c1ccc(-c2cncc(N3CCN(c4cccc(Cl)c4)CC3)n2)cc1 [compound 184, 4-(3-Chloro-phenyl)-6′-(4-trifluoromethyl-phenyl)-3,4,5,6-tetrahydro-2H-[1,2′]bipyrazinyl]
The pIC50 of the first is higher: 5.00 to 6.00 for the first, 4.00 to 5.00 for the second.

Compared with `COc1ccc(-c2cncc(N3CCN(c4cccc5[nH]ccc45)CC3)n2)cc1` [compound 38, 4-(1H-Indol-4-yl)-6′-(4-methoxy-phenyl)-3,4,5,6-tetrahydro-2H-[1,2′]bipyrazinyl], `CSc1ccc(-c2cncc(N3CCN(c4ccc(C(C)=O)cc4)CC3)n2)cc1` [compound 159] is higher in pIC50: 5.00 to 6.00 for the first, over 6.00 for the second.

`OCc1cccc(-c2cncc(N3CCN(CCN4CCCC4)CC3)n2)c1` [compound 63, {3-[4-(2-Pyrrolidin-1-yl-ethyl)-3,4,5,6-tetrahydro-2H-[1,2′]bipyrazinyl-6′-yl]-phenyl}-methanol] and `c1cncc(-c2cncc(N3CCN(c4ccncc4)CC3)n2)c1` [compound 54, 4-Pyridin-4-yl-6′-pyridin-3-yl-3,4,5,6-tetrahydro-2H-[1,2′]bipyrazinyl] fall in the same range of pIC50: 4.00 to 5.00 for the first, 4.00 to 5.00 for the second.

`CC(=O)c1ccc(-c2cncc(N3CCN(c4ccncc4)CC3)n2)cc1` [compound 133, 1-[4-(4-Pyridin-4-yl-3,4,5,6-tetrahydro-2H-[1,2′]bipyrazinyl-6′-yl)-phenyl]-ethanone] showed a pIC50 of 5.00 to 6.00.
